Legend:
[1] = test system: Human immunodeficiency virus 1; assay: Antiviral activity against wildtype HIV-1 IIIB infected in human MT4 cells assessed as protection against virus-induced cytopathic effect incubated for 5 days by MTT assay; type: functional, organism-based; details: Human immunodeficiency virus 1, IIIB, MT4, 120 h
[2] = Cytotoxicity against human MT4 cells assessed as reduction in cell viability measured after 5 days by MTT assay
[3] = test system: Human immunodeficiency virus 1; assay: Antiviral activity against HIV-1 harboring RT L100I mutant infected in human MT4 cells assessed as protection against virus-induced cytopathic effect incubated for 5 days by MTT assay; type: functional, organism-based; details: Human immunodeficiency virus 1, MT4, 120 h
[4] = test system: Human immunodeficiency virus 1; assay: Antiviral activity against HIV-1 harboring RT K103N mutant infected in human MT4 cells assessed as protection against virus-induced cytopathic effect incubated for 5 days by MTT assay; type: functional, organism-based; details: Human immunodeficiency virus 1, MT4, 120 h
[5] = test system: Human immunodeficiency virus 1; assay: Antiviral activity against HIV-1 harboring RT Y181C mutant infected in human MT4 cells assessed as protection against virus-induced cytopathic effect incubated for 5 days by MTT assay; type: functional, organism-based; details: Human immunodeficiency virus 1, MT4, 120 h
[6] = test system: Human immunodeficiency virus 1; assay: Antiviral activity against HIV-1 harboring RT Y188L mutant infected in human MT4 cells assessed as protection against virus-induced cytopathic effect incubated for 5 days by MTT assay; type: functional, organism-based; details: Human immunodeficiency virus 1, MT4, 120 h
[7] = test system: Human immunodeficiency virus 1; assay: Antiviral activity against HIV-1 harboring RT E138K mutant infected in human MT4 cells assessed as protection against virus-induced cytopathic effect incubated for 5 days by MTT assay; type: functional, organism-based; details: Human immunodeficiency virus 1, MT4, 120 h
[8] = test system: Human immunodeficiency virus 1; assay: Antiviral activity against HIV-1 harboring RT F227L/V106A double mutant infected in human MT4 cells assessed as protection against virus-induced cytopathic effect incubated for 5 days by MTT assay; type: functional, organism-based; details: Human immunodeficiency virus 1, MT4, 120 h
[9] = test system: Human immunodeficiency virus 1; assay: Antiviral activity against HIV-1 harboring RT K103N/Y181C double mutant infected in human MT4 cells assessed as protection against virus-induced cytopathic effect incubated for 5 days by MTT assay; type: functional, organism-based; details: Human immunodeficiency virus 1, MT4, 120 h
[10] = molecular target: Human immunodeficiency virus type 1 reverse transcriptase (Human immunodeficiency virus 1, UniProt Q72547); assay: Inhibition of recombinant wild type HIV-1 Reverse transcriptase incubated for 40 mins by Pico-green reagent based fluorescence analysis
[11] = Metabolic stability in human liver microsomes assessed as half-life at 0.1 uM preincubated for 10 mins followed by NADPH addition and measured upto 60 mins by LC-MS/MS analysis; type: ADME, Microsome; details: time < 70 min
[12] = Metabolic stability in rat liver microsomes assessed as half-life at 0.1 uM preincubated for 10 mins followed by NADPH addition and measured upto 60 mins by LC-MS/MS analysis; type: ADME, Microsome; details: time < 70 min
[13] = Selectivity index, ratio of CC50 for human MT4 cells to EC50 for wild type HIV-1 IIIB infected in human MT4 cellS; details: MT4 cells
[14] = Solubility of compound in phosphate buffer at pH 2.0 measured after 24 hrs by HPLC analysis; type: physicochemical
[15] = Solubility of compound in phosphate buffer at pH 7.0 measured after 24 hrs by HPLC analysis; type: physicochemical
[16] = Solubility of compound in phosphate buffer at pH 7.4 measured after 24 hrs by HPLC analysis; type: physicochemical
[17] = Solubility of compound in Watson's distilled pure water measured after 24 hrs by HPLC analysis; type: physicochemical
[18] = Half-life in male Sprague-Dawley rat at 1 mg/kg, iv measured after 24 hrs by LC-MS analysis; type: ADME, organism-based; details: in vivo
[19] = Tmax in male Sprague-Dawley rat at 1 mg/kg, iv measured after 24 hrs by LC-MS analysis; type: ADME, organism-based; details: in vivo
[20] = Cmax in male Sprague-Dawley rat at 1 mg/kg, iv measured after 24 hrs by LC-MS analysis; type: ADME, organism-based; details: in vivo
[21] = AUC (0 to t) in male Sprague-Dawley rat at 1 mg/kg, iv measured after 24 hrs by LC-MS analysis; type: ADME, organism-based; details: in vivo
[22] = AUC (0 to infinity) in male Sprague-Dawley rat at 1 mg/kg, iv measured after 24 hrs by LC-MS analysis; type: ADME, organism-based; details: in vivo
[23] = MRT (0 to t) in male Sprague-Dawley rat at 1 mg/kg, iv measured after 24 hrs by LC-MS analysis; type: ADME, organism-based; details: in vivo
[24] = MRT (0 to infinity) in male Sprague-Dawley rat at 1 mg/kg, iv measured after 24 hrs by LC-MS analysis; type: ADME, organism-based; details: in vivo
[25] = Clearance in male Sprague-Dawley rat at 1 mg/kg, iv measured after 24 hrs by LC-MS analysis; type: ADME, organism-based; details: in vivo
[26] = Half-life in male Sprague-Dawley rat at 10 mg/kg, po measured after 24 hrs by LC-MS analysis; type: ADME, organism-based; details: in vivo
[27] = Tmax in male Sprague-Dawley rat at 10 mg/kg, po measured after 24 hrs by LC-MS analysis; type: ADME, organism-based; details: in vivo
[28] = Cmax in male Sprague-Dawley rat at 10 mg/kg, po measured after 24 hrs by LC-MS analysis; type: ADME, organism-based; details: in vivo
[29] = AUC (0 to t) in male Sprague-Dawley rat at 10 mg/kg, po measured after 24 hrs by LC-MS analysis; type: ADME, organism-based; details: in vivo
[30] = AUC (0 to infinity) in male Sprague-Dawley rat at 10 mg/kg, po measured after 24 hrs by LC-MS analysis; type: ADME, organism-based; details: in vivo
[31] = MRT (0 to t) in male Sprague-Dawley rat at 10 mg/kg, po measured after 24 hrs by LC-MS analysis; type: ADME, organism-based; details: in vivo
[32] = MRT (0 to infinity) in male Sprague-Dawley rat at 10 mg/kg, po measured after 24 hrs by LC-MS analysis; type: ADME, organism-based; details: in vivo
[33] = Oral bioavailability in male Sprague-Dawley rat at 10 mg/kg measured after 24 hrs by LC-MS analysis; type: ADME, organism-based; details: in vivo
[34] = Metabolic stability in dog liver microsomes assessed as half-life at 0.1 uM preincubated for 10 mins followed by NADPH addition and measured upto 60 mins by LC-MS/MS analysis; type: ADME, Canis lupus familiaris, Microsome; details: time < 70 min

SMILES | EC50 [1] [nM] | EC50 [3] [nM] | EC50 [4] [nM] | EC50 [5] [nM] | EC50 [6] [nM] | EC50 [7] [nM] | EC50 [8] [nM] | EC50 [9] [nM] | IC50 [10] [nM] | CC50 at 120 h ([2]; MT4 cells) [nM] | selectivity ratio [13] | also measured
N#Cc1ccc(Nc2nccc(Nc3c(F)cc(-c4ccncc4)cc3F)n2)cc1 | 2 | 4 | 2 | 6 | 57 | 10 | 299 | 64 | 31 |  |  | CC50 at 120 h ([2]; mt4): 6000 nM; half-life at 0.1 µM [11]: 0.16 h; half-life at 0.1 µM [12]: 0.217 h
Cc1cc(-c2ccncc2)cc(C)c1Nc1nc(Nc2ccc(C#N)cc2)ncc1-c1ccnc(Cl)c1 | 6 | 55 | 19 | 56 | 83 | 26 | 1760 | 597 | 98 | 158000 | 27300 | 
Cc1cc(-c2ccncc2)cc(C)c1Nc1nc(Nc2ccc(C#N)cc2)ncc1-c1cncc(N)c1 | 6 | 29 | 7 | 51 | 63 | 13 | 323 | 378 | 73 | 6380 | 1050 | 
Cc1cc(-c2ccncc2)cc(C)c1Nc1nc(Nc2ccc(C#N)cc2)ncc1-c1ccc(F)nc1 | 9 | 51 | 9 | 48 | 76 | 14 | 1160 | 480 | 86 | 48400 | 5530 | 
Cc1cc(-c2ccncc2)cc(C)c1Nc1nc(Nc2ccc(C#N)cc2)ncc1-c1ccc(N)nc1 | 8 | 39 | 11 | 41 | 50 | 11 | 1140 | 156 | 94 | 4870 | 575 | 
COc1cc(-c2cnc(Nc3ccc(C#N)cc3)nc2Nc2c(C)cc(-c3ccncc3)cc2C)ccn1 | 9 | 51 | 21 | 61 | 91 | 16 | 611 | 594 | 115 | 59900 | 6750 | 
Cc1ccc(-c2cnc(Nc3ccc(C#N)cc3)nc2Nc2c(C)cc(-c3ccncc3)cc2C)cn1 | 5 | 49 | 6 | 47 | 54 | 7 | 496 | 401 | 132 | 198000 | 38900 | 
Cc1cc(-c2ccncc2)cc(C)c1Nc1nc(Nc2ccc(C#N)cc2)ncc1-c1cncc(Cl)c1 | 8 | 117 | 37 | 78 | 121 | 45 | 1530 | 982 | 197 | > 248000 | > 32800 | 
Cc1cc(-c2ccncc2)cc(C)c1Nc1nc(Nc2ccc(C#N)cc2)ncc1-c1ccnc(F)c1 | 8 | 94 | 7 | 45 | 45 | 8 | 1370 | 425 | 111 | > 256000 | > 31500 | 
Cc1cc(-c2ccncc2)cc(C)c1Nc1nc(Nc2ccc(C#N)cc2)ncc1-c1cn[nH]c1.Cl |  |  |  |  |  |  |  |  |  |  |  | solubility at 24 h [14]: 782 µg/mL; solubility at 24 h [15]: < 1 µg/mL; solubility at 24 h [16]: < 1 µg/mL; solubility at 24 h [17]: 366 µg/mL; half-life [18]: 0.84 h; Tmax [19]: 4.8 min; Cmax [20]: 572 ng/mL; AUC(0-t) at 24 h [21]: 600 ng·h/mL; AUC(0-inf) [22]: 605 ng·h/mL; MRT last at 24 h [23]: 1.1 h; MRT inf [24]: 1.14 h; clearance [25]: 30.3 mL/min/kg; half-life [26]: 2.92 h; Tmax [27]: 1 h; Cmax [28]: 862 ng/mL; AUC(0-t) at 24 h [29]: 3460 ng·h/mL; AUC(0-inf) [30]: 3470 ng·h/mL; MRT last at 24 h [31]: 3.04 h; MRT inf [32]: 3.14 h; bioavailability [33]: 57.4%
Cc1cc(C#N)cc(C)c1Oc1nc(Nc2ccc(C#N)cc2)nc(N)c1Br [ETRAVIRINE] |  | 4 |  | 13 | 17 |  | 12 | 43 |  | > 4610 |  | half-life at 0.1 µM [11]: 1.07 h; half-life at 0.1 µM [12]: 0.225 h; half-life at 0.1 µM [34]: 2.53 h; solubility at 24 h [15]: < 1 µg/mL; solubility at 24 h [16]: < 1 µg/mL; solubility at 24 h [17]: < 1 µg/mL
Cc1cc(/C=C/C#N)cc(C)c1Nc1ccnc(Nc2ccc(C#N)cc2)n1 [RILPIVIRINE] | 4 |  |  |  |  |  |  |  |  | > 6350 |  | half-life at 0.1 µM [11]: 0.267 h; half-life at 0.1 µM [12]: 0.121 h; half-life at 0.1 µM [34]: 1.32 h
